Assay results published in BigSolDB 2.1.

CCc1occc(=O)c1O
solubility (mole fraction)
Details	293.15 K	298.15 K	303.15 K	308.15 K	313.15 K	318.15 K	323.15 K	328.15 K	333.15 K
in ethanol	0.0599	0.0798	0.0974	0.133	0.174	0.227	0.291	0.367	0.459
in water	0.0021	0.0023	0.0027	0.0033	0.004	0.0051	0.0067	0.0089	0.0126
